“And” between values parts separate entries of the source, which are not always exact repeats. Equal entries are not always repeated.
Species on record: Rattus norvegicus
Experiment: DrugMatrix - Regimen: Daily Repeat
Assay type: toxicity, organism-based, Sprague-Dawley
Set-up: regimen Daily Repeat, gender Male, age 6-8 weeks
Conditions: in vivo, ip, route intraperitoneal, vehicle 100 % SALINE; for ABSOLUTE BASOPHIL / ABSOLUTE LYMPHOCYTE / ABSOLUTE MONOCYTE / ABSOLUTE SEGMENTED NEUTROPHIL / BASOPHIL / EOSINOPHIL / ERYTHROCYTE COUNT / HEMATOCRIT / HEMOGLOBIN / LEUKOCYTE COUNT / LYMPHOCYTE / MEAN CORPUSCULAR HEMOGLOBIN / MEAN CORPUSCULAR HEMOGLOBIN CONCENTRATION / MEAN CORPUSCULAR VOLUME / MONOCYTE / NEUTROPHIL / NUCLEATED RED BLOOD CELLS / PLATELET COUNT / ABSOLUTE EOSINOPHIL: tissue Blood; for ALANINE AMINOTRANSFERASE / ALBUMIN / ALKALINE PHOSPHATASE / ASPARTATE AMINOTRANSFERASE / BLOOD UREA NITROGEN / CARBON DIOXIDE / CHLORIDE / CHOLESTEROL / CREATINE PHOSPHOKINASE / CREATININE / GLUCOSE / LACTATE DEHYDROGENASE / LIPASE / PHOSPHORUS / POTASSIUM / SODIUM / TOTAL BILIRUBIN / TOTAL PROTEIN / URIC ACID: tissue Plasma
[1] = 0 mg/kg, 72 h, dose level Control, time 3 day
[2] = 0 mg/kg, 120 h, dose level Control, time 5 day
[3] = 0 mg/kg, […], dose level Control, time 7 day
[4] = 16 mg/kg, 72 h, dose level Low, time 3 day
[5] = 16 mg/kg, […], dose level Low, time 7 day

Question: What does the source list for C=CCO [ALLYL ALCOHOL]?
Answer: ABSOLUTE BASOPHIL [1]: 0 CELLS/uL; ABSOLUTE LYMPHOCYTE [1]: 13949.83 CELLS/uL and 6988.5 CELLS/uL; ABSOLUTE MONOCYTE [1]: 176.17 CELLS/uL and 88 CELLS/uL; ABSOLUTE SEGMENTED NEUTROPHIL [1]: 1407.33 CELLS/uL and 1041.83 CELLS/uL; BASOPHIL [1]: 0%; EOSINOPHIL [1]: 0% and 0.17%; ERYTHROCYTE COUNT [1]: 5.29 x10E6/uL and 5.73 x10E6/uL; HEMATOCRIT [1]: 33.5% and 35.87%; HEMOGLOBIN [1]: 13.47 G/DL and 13.27 G/DL; LEUKOCYTE COUNT [1]: 15.53 x10E3/uL and 8.13 x10E3/uL; LYMPHOCYTE [1]: 89.5% and 85.83%; MEAN CORPUSCULAR HEMOGLOBIN [1]: 25.5 pg and 23.2 pg; MEAN CORPUSCULAR HEMOGLOBIN CONCENTRATION [1]: 40.27 G/DL and 37 G/DL; MEAN CORPUSCULAR VOLUME [1]: 63.33 fL and 62.63 fL; MONOCYTE [1]: 1.17%; NEUTROPHIL [1]: 9.33% and 12.83%; NUCLEATED RED BLOOD CELLS [1]: 0 /100WBC; PLATELET COUNT [1]: 1100 x10E3/uL and 1294.17 x10E3/uL; ALANINE AMINOTRANSFERASE [1]: 41.5 u/L and 49.17 u/L; ALBUMIN [1]: 3.78 G/DL and 4.35 G/DL; ALKALINE PHOSPHATASE [1]: 267.5 u/L and 415.17 u/L; ASPARTATE AMINOTRANSFERASE [1]: 77.67 u/L and 88.5 u/L; BLOOD UREA NITROGEN [1]: 13.67 mg/dL and 14.33 mg/dL; CARBON DIOXIDE [1]: 28.17 mmol/L and 34.83 mmol/L; CHLORIDE [1]: 100.67 MEQ/L and 98.5 MEQ/L; CHOLESTEROL [1]: 70.67 mg/dL and 75.83 mg/dL; CREATINE PHOSPHOKINASE [1]: 341.83 u/L and 271.83 u/L; CREATININE [1]: 0.15 mg/dL and 0.19 mg/dL; GLUCOSE [1]: 169 mg/dL and 148.17 mg/dL; LACTATE DEHYDROGENASE [1]: 138.5 u/L and 166.33 u/L; LIPASE [1]: 10.33 u/L and 9.2 u/L; PHOSPHORUS [1]: 9.6 mg/dL and 10.37 mg/dL; POTASSIUM [1]: 5.69 MEQ/L and 6.16 MEQ/L; SODIUM [1]: 140.88 MEQ/L and 143.75 MEQ/L; TOTAL BILIRUBIN [1]: 0.2 mg/dL and 0.18 mg/dL; TOTAL PROTEIN [1]: 5.95 G/DL and 6.22 G/DL; URIC ACID [1]: 1.18 mg/dL and 0.92 mg/dL; ABSOLUTE BASOPHIL [2]: 0 CELLS/uL; ABSOLUTE EOSINOPHIL [2]: 9.17 CELLS/uL; ABSOLUTE LYMPHOCYTE [2]: 6359.17 CELLS/uL; ABSOLUTE MONOCYTE [2]: 87.33 CELLS/uL; ABSOLUTE SEGMENTED NEUTROPHIL [2]: 894.33 CELLS/uL; BASOPHIL [2]: 0%; EOSINOPHIL [2]: 0.17%; ERYTHROCYTE COUNT [2]: 5.68 x10E6/uL; HEMATOCRIT [2]: 35.05%; HEMOGLOBIN [2]: 13.22 G/DL; LEUKOCYTE COUNT [2]: 7.35 x10E3/uL; LYMPHOCYTE [2]: 86.33%; MEAN CORPUSCULAR HEMOGLOBIN [2]: 23.32 pg; MEAN CORPUSCULAR HEMOGLOBIN CONCENTRATION [2]: 37.72 G/DL; MEAN CORPUSCULAR VOLUME [2]: 61.82 fL; MONOCYTE [2]: 1.17%; NEUTROPHIL [2]: 12.33%; NUCLEATED RED BLOOD CELLS [2]: 0 /100WBC; PLATELET COUNT [2]: 1231 x10E3/uL; ALANINE AMINOTRANSFERASE [2]: 44.5 u/L; ALBUMIN [2]: 4.47 G/DL; ALKALINE PHOSPHATASE [2]: 372.33 u/L; ASPARTATE AMINOTRANSFERASE [2]: 88.67 u/L; BLOOD UREA NITROGEN [2]: 14.67 mg/dL; CARBON DIOXIDE [2]: 35.33 mmol/L; CHLORIDE [2]: 100.6 MEQ/L; CHOLESTEROL [2]: 75 mg/dL; CREATINE PHOSPHOKINASE [2]: 303.83 u/L; CREATININE [2]: 0.16 mg/dL; GLUCOSE [2]: 135.83 mg/dL; LACTATE DEHYDROGENASE [2]: 137.17 u/L; LIPASE [2]: 9.2 u/L; PHOSPHORUS [2]: 10.42 mg/dL; POTASSIUM [2]: 5.9 MEQ/L; SODIUM [2]: 143.7 MEQ/L; TOTAL BILIRUBIN [2]: 0.18 mg/dL; TOTAL PROTEIN [2]: 6.42 G/DL; URIC ACID [2]: 0.78 mg/dL; ABSOLUTE BASOPHIL [3]: 0 CELLS/uL; ABSOLUTE EOSINOPHIL [3]: 12.33 CELLS/uL; ABSOLUTE LYMPHOCYTE [3]: 8726.33 CELLS/uL; ABSOLUTE MONOCYTE [3]: 135.33 CELLS/uL; ABSOLUTE SEGMENTED NEUTROPHIL [3]: 559.33 CELLS/uL; BASOPHIL [3]: 0%; EOSINOPHIL [3]: 0.17%; ERYTHROCYTE COUNT [3]: 5.5 x10E6/uL; HEMATOCRIT [3]: 34.02%; HEMOGLOBIN [3]: 13.12 G/DL; LEUKOCYTE COUNT [3]: 9.43 x10E3/uL; LYMPHOCYTE [3]: 92.67%; MEAN CORPUSCULAR HEMOGLOBIN [3]: 23.85 pg; MEAN CORPUSCULAR HEMOGLOBIN CONCENTRATION [3]: 38.57 G/DL; MEAN CORPUSCULAR VOLUME [3]: 61.83 fL; MONOCYTE [3]: 1.33%; NEUTROPHIL [3]: 5.83%; NUCLEATED RED BLOOD CELLS [3]: 0 /100WBC; PLATELET COUNT [3]: 1308.83 x10E3/uL; ALANINE AMINOTRANSFERASE [3]: 56 u/L; ALBUMIN [3]: 3.7 G/DL; ALKALINE PHOSPHATASE [3]: 281.17 u/L; ASPARTATE AMINOTRANSFERASE [3]: 78.33 u/L; BLOOD UREA NITROGEN [3]: 15 mg/dL; CARBON DIOXIDE [3]: 30.5 mmol/L; CHLORIDE [3]: 103.33 MEQ/L; CHOLESTEROL [3]: 63.83 mg/dL; CREATINE PHOSPHOKINASE [3]: 253.33 u/L; CREATININE [3]: 0.2 mg/dL; GLUCOSE [3]: 151.17 mg/dL; LACTATE DEHYDROGENASE [3]: 89 u/L; LIPASE [3]: 10.33 u/L; PHOSPHORUS [3]: 9.7 mg/dL; POTASSIUM [3]: 5.46 MEQ/L; SODIUM [3]: 146.28 MEQ/L; TOTAL BILIRUBIN [3]: 0.12 mg/dL; TOTAL PROTEIN [3]: 6.07 G/DL; URIC ACID [3]: 0.65 mg/dL; ABSOLUTE BASOPHIL [4]: 0 CELLS/uL; ABSOLUTE EOSINOPHIL [4]: 0 CELLS/uL; ABSOLUTE LYMPHOCYTE [4]: 14529.5 CELLS/uL; ABSOLUTE MONOCYTE [4]: 274 CELLS/uL; ABSOLUTE SEGMENTED NEUTROPHIL [4]: 1013.17 CELLS/uL; BASOPHIL [4]: 0%; EOSINOPHIL [4]: 0%; ERYTHROCYTE COUNT [4]: 5.55 x10E6/uL; HEMATOCRIT [4]: 35.25%; HEMOGLOBIN [4]: 13.98 G/DL; LEUKOCYTE COUNT [4]: 15.82 x10E3/uL; LYMPHOCYTE [4]: 91.67%; MEAN CORPUSCULAR HEMOGLOBIN [4]: 25.2 pg; MEAN CORPUSCULAR HEMOGLOBIN CONCENTRATION [4]: 39.7 G/DL; MEAN CORPUSCULAR VOLUME [4]: 63.53 fL; MONOCYTE [4]: 1.67%; NEUTROPHIL [4]: 6.67%; NUCLEATED RED BLOOD CELLS [4]: 0 /100WBC; PLATELET COUNT [4]: 1167.33 x10E3/uL; ALANINE AMINOTRANSFERASE [4]: 46.17 u/L; ALBUMIN [4]: 3.8 G/DL; ALKALINE PHOSPHATASE [4]: 266.8 u/L; ASPARTATE AMINOTRANSFERASE [4]: 66.67 u/L; BLOOD UREA NITROGEN [4]: 13 mg/dL; CARBON DIOXIDE [4]: 32.5 mmol/L; CHLORIDE [4]: 100.2 MEQ/L; CHOLESTEROL [4]: 68.67 mg/dL; CREATINE PHOSPHOKINASE [4]: 231.17 u/L; CREATININE [4]: 0.44 mg/dL; GLUCOSE [4]: 143.67 mg/dL; LACTATE DEHYDROGENASE [4]: 122.67 u/L; LIPASE [4]: 8 u/L; PHOSPHORUS [4]: 8.67 mg/dL; POTASSIUM [4]: 6.2 MEQ/L; SODIUM [4]: 141.52 MEQ/L; TOTAL BILIRUBIN [4]: 0.18 mg/dL; TOTAL PROTEIN [4]: 5.57 G/DL; URIC ACID [4]: 1.13 mg/dL; ABSOLUTE BASOPHIL [5]: 0 CELLS/uL; ABSOLUTE EOSINOPHIL [5]: 88.33 CELLS/uL; ABSOLUTE LYMPHOCYTE [5]: 10357.5 CELLS/uL; ABSOLUTE MONOCYTE [5]: 213 CELLS/uL; ABSOLUTE SEGMENTED NEUTROPHIL [5]: 574.5 CELLS/uL; BASOPHIL [5]: 0%; EOSINOPHIL [5]: 1%; ERYTHROCYTE COUNT [5]: 5.67 x10E6/uL; HEMATOCRIT [5]: 35.32%; HEMOGLOBIN [5]: 13.55 G/DL; LEUKOCYTE COUNT [5]: 11.23 x10E3/uL; LYMPHOCYTE [5]: 91.5%; MEAN CORPUSCULAR HEMOGLOBIN [5]: 23.88 pg; MEAN CORPUSCULAR HEMOGLOBIN CONCENTRATION [5]: 38.38 G/DL; MEAN CORPUSCULAR VOLUME [5]: 62.35 fL; MONOCYTE [5]: 1.83%; NEUTROPHIL [5]: 5.67%; NUCLEATED RED BLOOD CELLS [5]: 0 /100WBC; PLATELET COUNT [5]: 1370 x10E3/uL

Source: ChEMBL document CHEMBL3885881, “DrugMatrix”
